Test [1] has as its target T1, Bcl-2-like protein 1 (Homo sapiens, UniProt Q07817, L130V). The experiment in a line: Displacement of BODIPY-Bak conjugated peptide from GST-tagged human Bcl-2-like protein 1 L130V mutant expressed in Escherichia coli BL21 cells at 10 uM after 3 hrs by fluorescence polarization competition assay.
The target of test [2] is Induced myeloid leukemia cell differentiation protein Mcl-1 homolog (Mus musculus, UniProt P97287). The experiment in a line: Displacement of BODIPY-Bak conjugated peptide from GST-tagged mouse wild type MCL1 expressed in Escherichia coli BL21 cells at 10 uM after 3 hrs by fluorescence polarization competition assay.
The next test deals with T2, Bcl-2-like protein 2 (Homo sapiens, UniProt Q92843).
T2 sequence (Q92843 whole entry): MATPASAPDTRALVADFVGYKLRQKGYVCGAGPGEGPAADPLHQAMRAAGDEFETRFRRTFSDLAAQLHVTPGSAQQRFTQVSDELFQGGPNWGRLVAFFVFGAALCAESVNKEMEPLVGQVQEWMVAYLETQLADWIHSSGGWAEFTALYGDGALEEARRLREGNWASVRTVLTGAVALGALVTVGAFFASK
The experiment in a line: Displacement of BODIPY-Bak conjugated peptide from GST-tagged human wild type Bcl-W expressed in Escherichia coli BL21 cells at 10 uM after 3 hrs by fluorescence polarization competition assay.

For test [3], the target named is T3, Bcl-2-like protein 1 (Homo sapiens, UniProt Q07817). The experiment in a line: Displacement of BODIPY-Bak conjugated peptide from GST-tagged human Wild type Bcl-2-like protein 1 expressed in Escherichia coli BL21 cells at 10 uM after 3 hrs by fluorescence polarization competition assay.
Test [4] deals with T4, Bcl-2-like protein 1 (Homo sapiens, UniProt Q07817, L130G). Briefly: Displacement of BODIPY-Bak conjugated peptide from GST-tagged human Bcl-2-like protein 1 L130G mutant expressed in Escherichia coli BL21 cells at 10 uM after 3 hrs by fluorescence polarization competition assay.
Test [5] concerns the target Bcl-2-like protein 1 (Homo sapiens, UniProt Q07817, L130A). Briefly: Displacement of BODIPY-Bak conjugated peptide from GST-tagged human Bcl-2-like protein 1 L130A mutant expressed in Escherichia coli BL21 cells at 40 uM after 3 hrs by fluorescence polarization competition assay.
Test [6] addresses Bcl-2-like protein 1 (Homo sapiens, UniProt Q07817, A93V). Briefly: Displacement of BODIPY-Bak conjugated peptide from GST-tagged human Bcl-2-like protein 1 A93V mutant expressed in Escherichia coli BL21 cells at 40 uM after 3 hrs by fluorescence polarization competition assay.
Test [7] is described as follows: Displacement of BODIPY-Bak conjugated peptide from GST-tagged human Bcl-2-like protein 1 A142G, delta136T mutant expressed in Escherichia coli BL21 cells at 40 uM after 3 hrs by fluorescence polarization competition assay.
A short description of test [8]: Displacement of BODIPY-Bak conjugated peptide from GST-tagged human Bcl-2-like protein 1 delta136T mutant expressed in Escherichia coli BL21 cells at 40 uM after 3 hrs by fluorescence polarization competition assay.
Test [9] concerns the target Bcl-2-like protein 1 (Homo sapiens, UniProt Q07817, G196A). Briefly: Displacement of BODIPY-Bak conjugated peptide from GST-tagged human Bcl-2-like protein 1 G196A mutant expressed in Escherichia coli BL21 cells at 40 uM after 3 hrs by fluorescence polarization competition assay.
Test [10] deals with Bcl-2-like protein 1 (Homo sapiens, UniProt Q07817, Y101H). Briefly: Displacement of BODIPY-Bak conjugated peptide from GST-tagged human Bcl-2-like protein 1 Y101H mutant expressed in Escherichia coli BL21 cells at 40 uM after 3 hrs by fluorescence polarization competition assay.
Test [11] addresses T3, Bcl-2-like protein 1. Briefly: Displacement of BODIPY-Bak conjugated peptide from GST-tagged human Wild type Bcl-2-like protein 1 expressed in Escherichia coli BL21 cells at 40 uM after 3 hrs by fluorescence polarization competition assay.
The target of test [12] is Bcl-2-like protein 1 (Homo sapiens, UniProt Q07817, Y195F). The experiment in a line: Displacement of BODIPY-Bak conjugated peptide from GST-tagged human Bcl-2-like protein 1 Y195F mutant expressed in Escherichia coli BL21 cells at 40 uM after 3 hrs by fluorescence polarization competition assay.
In test [13] the target is Bcl-2-like protein 1 (Homo sapiens, UniProt Q07817, A142G). Briefly: Displacement of BODIPY-Bak conjugated peptide from GST-tagged human Bcl-2-like protein 1 A142G mutant expressed in Escherichia coli BL21 cells at 40 uM after 3 hrs by fluorescence polarization competition assay.
The target in test [14] is Bcl-2-like protein 1 (Homo sapiens, UniProt Q07817, E96G). The experiment in a line: Displacement of BODIPY-Bak conjugated peptide from GST-tagged human Bcl-2-like protein 1 E96G mutant expressed in Escherichia coli BL21 cells at 40 uM after 3 hrs by fluorescence polarization competition assay.
Test [15] has as its target Bcl-2-like protein 1 (Homo sapiens, UniProt Q07817, R100E). The experiment in a line: Displacement of BODIPY-Bak conjugated peptide from GST-tagged human Bcl-2-like protein 1 R100E mutant expressed in Escherichia coli BL21 cells at 40 uM after 3 hrs by fluorescence polarization competition assay.
For test [16], the target named is Bcl-2-like protein 1 (Homo sapiens, UniProt Q07817, V141A). The experiment in a line: Displacement of BODIPY-Bak conjugated peptide from GST-tagged human Bcl-2-like protein 1 V141A mutant expressed in Escherichia coli BL21 cells at 40 uM after 3 hrs by fluorescence polarization competition assay.
The target in test [17] is Bcl-2-like protein 1 (Homo sapiens, UniProt Q07817, F97V). The experiment in a line: Displacement of BODIPY-Bak conjugated peptide from GST-tagged human Bcl-2-like protein 1 F97V mutant expressed in Escherichia coli BL21 cells at 40 uM after 3 hrs by fluorescence polarization competition assay.
For test [18], the target named is Bcl-2-like protein 1 (Homo sapiens, UniProt Q07817, E129H). The experiment in a line: Displacement of BODIPY-Bak conjugated peptide from GST-tagged human Bcl-2-like protein 1 E129H mutant expressed in Escherichia coli BL21 cells at 40 uM after 3 hrs by fluorescence polarization competition assay.
Test [19] addresses T1, Bcl-2-like protein 1. The experiment in a line: Displacement of BODIPY-Bak conjugated peptide from GST-tagged human Bcl-2-like protein 1 L130V mutant expressed in Escherichia coli BL21 cells at 40 uM after 3 hrs by fluorescence polarization competition assay.
Test [20] concerns the target T4, Bcl-2-like protein 1. Briefly: Displacement of BODIPY-Bak conjugated peptide from GST-tagged human Bcl-2-like protein 1 L130G mutant expressed in Escherichia coli BL21 cells at 40 uM after 3 hrs by fluorescence polarization competition assay.
Test [21] concerns the target Bcl-2-like protein 1 (Homo sapiens, UniProt Q07817, A142T). Briefly: Displacement of BODIPY-Bak conjugated peptide from GST-tagged human Bcl-2-like protein 1 A142T mutant expressed in Escherichia coli BL21 cells at 40 uM after 3 hrs by fluorescence polarization competition assay.

Bcl-2-like protein 1 (Homo sapiens, UniProt Q07817, E96G), sequence (Q07817 whole entry E96G): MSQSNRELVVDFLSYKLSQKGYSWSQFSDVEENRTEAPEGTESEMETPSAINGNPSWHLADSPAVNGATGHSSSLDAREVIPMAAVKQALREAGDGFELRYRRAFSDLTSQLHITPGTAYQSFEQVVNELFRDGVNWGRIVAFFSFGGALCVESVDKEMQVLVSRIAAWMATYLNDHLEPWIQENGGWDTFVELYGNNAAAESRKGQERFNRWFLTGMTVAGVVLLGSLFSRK
Bcl-2-like protein 1 (Homo sapiens, UniProt Q07817, V141A), sequence (Q07817 whole entry V141A): as the sequence (Q07817 whole entry E96G) above, with G96E, V141A counted along it
T3 sequence (Q07817 whole entry): as the sequence (Q07817 whole entry E96G) above, with G96E counted along it
Bcl-2-like protein 1 (Homo sapiens, UniProt Q07817, Y101H), sequence (Q07817 whole entry Y101H): as the sequence (Q07817 whole entry E96G) above, with G96E, Y101H counted along it
Bcl-2-like protein 1 (Homo sapiens, UniProt Q07817, R100E), sequence (Q07817 whole entry R100E): as the sequence (Q07817 whole entry E96G) above, with G96E, R100E counted along it
Bcl-2-like protein 1 (Homo sapiens, UniProt Q07817, Y195F), sequence (Q07817 whole entry Y195F): as the sequence (Q07817 whole entry E96G) above, with G96E, Y195F counted along it
Bcl-2-like protein 1 (Homo sapiens, UniProt Q07817, A93V), sequence (Q07817 whole entry A93V): as the sequence (Q07817 whole entry E96G) above, with A93V, G96E counted along it
T1 sequence (Q07817 whole entry L130V): as the sequence (Q07817 whole entry E96G) above, with G96E, L130V counted along it
Induced myeloid leukemia cell differentiation protein Mcl-1 homolog, sequence (P97287 whole entry): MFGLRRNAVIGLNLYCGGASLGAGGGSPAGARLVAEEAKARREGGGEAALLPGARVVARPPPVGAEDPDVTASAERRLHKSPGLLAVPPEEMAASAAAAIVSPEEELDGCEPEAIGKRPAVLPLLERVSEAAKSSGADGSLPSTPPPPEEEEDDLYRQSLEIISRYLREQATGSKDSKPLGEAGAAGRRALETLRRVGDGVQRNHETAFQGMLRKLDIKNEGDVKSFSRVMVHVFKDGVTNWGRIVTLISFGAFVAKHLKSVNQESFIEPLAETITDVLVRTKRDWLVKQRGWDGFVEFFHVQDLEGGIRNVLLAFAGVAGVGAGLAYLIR
Bcl-2-like protein 1 (Homo sapiens, UniProt Q07817, A142G), sequence (Q07817 whole entry A142G): as the sequence (Q07817 whole entry E96G) above, with G96E, A142G counted along it
Bcl-2-like protein 1 (Homo sapiens, UniProt Q07817, L130A), sequence (Q07817 whole entry L130A): as the sequence (Q07817 whole entry E96G) above, with G96E, L130A counted along it
Bcl-2-like protein 1 (Homo sapiens, UniProt Q07817, F97V), sequence (Q07817 whole entry F97V): as the sequence (Q07817 whole entry E96G) above, with G96E, F97V counted along it
Bcl-2-like protein 1 (Homo sapiens, UniProt Q07817, E129H), sequence (Q07817 whole entry E129H): as the sequence (Q07817 whole entry E96G) above, with G96E, E129H counted along it
T4 sequence (Q07817 whole entry L130G): as the sequence (Q07817 whole entry E96G) above, with G96E, L130G counted along it
Bcl-2-like protein 1 (Homo sapiens, UniProt Q07817, G196A), sequence (Q07817 whole entry G196A): as the sequence (Q07817 whole entry E96G) above, with G96E, G196A counted along it
Bcl-2-like protein 1 (Homo sapiens, UniProt Q07817, A142T), sequence (Q07817 whole entry A142T): as the sequence (Q07817 whole entry E96G) above, with G96E, A142T counted along it

`C[C@H]1CN(c2ccc(C(=O)NS(=O)(=O)c3ccc(N[C@H](CCN(C)C)CSc4ccccc4)c([N+](=O)[O-])c3)cc2)CCN1Cc1ccccc1C(F)(F)F`: the Ki on Bcl-2-like protein 1 [1] was under 1 nM; in test [2], 2000 nM; on Bcl-2-like protein 2, 63 nM; on Bcl-2-like protein 1 [3], under 1 nM; on Bcl-2-like protein 1 [4], 99 nM.
As to `CC[C@H](C)[C@H](NC(=O)[C@H](CCC(=O)O)NC(=O)[C@H](CCCNC(=N)N)NC(=O)[C@H](C)NC(=O)[C@H](Cc1c[nH]c2ccccc12)NC(=O)[C@H](CCC(N)=O)NC(=O)[C@H](CCC(=O)O)NC(=O)[C@@H](N)CCC(=O)O)C(=O)NCC(=O)N[C@@H](C)C(=O)N[C@@H](CCC(N)=O)C(=O)N[C@@H](CC(C)C)C(=O)N[C@@H](CCCNC(=N)N)C(=O)N[C@@H](CCCNC(=N)N)C(=O)N[C@@H](CCSC)C(=O)N[C@@H](C)C(=O)N[C@@H](CC(=O)O)C(=O)N[C@@H](CC(=O)O)C(=O)N[C@@H](CC(C)C)C(=O)N[C@@H](CC(N)=O)C(=O)N[C@@H](C)C(=O)N[C@@H](CCC(N)=O)C(=O)N[C@@H](Cc1ccc(O)cc1)C(=O)N[C@@H](CCC(=O)O)C(=O)N[C@@H](CCCNC(=N)N)C(=O)N[C@@H](CCCNC(=N)N)C(=O)O`, the Ki was 120 nM at Bcl-2-like protein 1 [5]; over 10000 nM on Bcl-2-like protein 1 [6]; 75 nM in [7]; 26 nM in [8]; 8.9 nM on Bcl-2-like protein 1 [9]; 380 nM on Bcl-2-like protein 1 [10]. Besides, the inhibition constant (Ki) is 1.4 nM at Bcl-2-like protein 1 [11]; 8.7 nM on Bcl-2-like protein 1 [12]; 9.7 nM at Bcl-2-like protein 1 [13]; over 10000 nM at Bcl-2-like protein 1 [14]; 180 nM on Bcl-2-like protein 1 [15]; 100 nM on Bcl-2-like protein 1 [16]. The Ki at Bcl-2-like protein 1 [17] is 89 nM; on Bcl-2-like protein 1 [18], 170 nM; on Bcl-2-like protein 1 [19], 29 nM; at Bcl-2-like protein 1 [20], 530 nM; at Bcl-2-like protein 1 [21] it was 130 nM.
For `CSCC[C@H](NC(=O)[C@H](CCCNC(=N)N)NC(=O)[C@H](CCCNC(=N)N)NC(=O)[C@H](CC(C)C)NC(=O)[C@H](CCC(=O)O)NC(=O)[C@H](CCCNC(=N)N)NC(=O)CNC(=O)[C@H](Cc1ccc(O)cc1)NC(=O)[C@H](CCCNC(=N)N)NC(=O)[C@H](CCC(N)=O)NC(=O)[C@H](C)NC(=O)[C@H](C)NC(=O)[C@H](Cc1c[nH]c2ccccc12)NC(=O)[C@@H](N)CC(C)C)C(=O)N[C@@H](CO)C(=O)N[C@@H](CC(=O)O)C(=O)N[C@@H](CCC(=O)O)C(=O)N[C@@H](Cc1ccccc1)C(=O)N[C@@H](CCC(=O)O)C(=O)NCC(=O)N[C@@H](CO)C(=O)N[C@@H](Cc1ccccc1)C(=O)N[C@@H](CCCCN)C(=O)NCC(=O)N[C@@H](CC(C)C)C(=O)O`, the Ki at Bcl-2-like protein 1 [5] was 140 nM; on Bcl-2-like protein 1 [6] it was under 1 nM; in test [7], 9.8 nM; in test [8], 8.5 nM; at Bcl-2-like protein 1 [9], 2.3 nM; on Bcl-2-like protein 1 [10] it was 96 nM. Also, the Ki on Bcl-2-like protein 1 [11] was 3.2 nM; on Bcl-2-like protein 1 [12], 4.5 nM; at Bcl-2-like protein 1 [13], under 1 nM; at Bcl-2-like protein 1 [14] it was under 5 nM; on Bcl-2-like protein 1 [15] it was 55 nM; on Bcl-2-like protein 1 [16], 42 nM. The Ki at Bcl-2-like protein 1 [17] was 150 nM; at Bcl-2-like protein 1 [18], 77 nM; at Bcl-2-like protein 1 [19] it was 11 nM; at Bcl-2-like protein 1 [20], 660 nM; at Bcl-2-like protein 1 [21], 41 nM.
Turning to `C[C@@H]1CN(c2ccc(C(=O)NS(=O)(=O)c3ccc(N[C@H](CCN(C)C)CSc4ccccc4)c([N+](=O)[O-])c3)cc2)CCN1Cc1ccccc1C(F)(F)F`, the Ki was 3.7 nM at Bcl-2-like protein 1 [1]; 1500 nM in test [2]; 55 nM on Bcl-2-like protein 2; 1 nM on Bcl-2-like protein 1 [3]; 81 nM on Bcl-2-like protein 1 [4].
The corresponding values for `CC(C)[C@@H]1CN(Cc2ccccc2C(F)(F)F)CCN1c1ccc(C(=O)NS(=O)(=O)c2ccc(N[C@H](CCN(C)C)CSc3ccccc3)c([N+](=O)[O-])c2)cc1` are 42 nM, 2000 nM, 21 nM, 2.6 nM and 280 nM.
In the case of `CC(C)[C@H]1CN(Cc2ccccc2C(F)(F)F)CCN1c1ccc(C(=O)NS(=O)(=O)c2ccc(N[C@H](CCN(C)C)CSc3ccccc3)c([N+](=O)[O-])c2)cc1`, the Ki came to 63 nM on Bcl-2-like protein 1 [1]; 2000 nM in test [2]; 59 nM at Bcl-2-like protein 2; 3.3 nM at Bcl-2-like protein 1 [3]; 83 nM on Bcl-2-like protein 1 [4].
Regarding `CC1CN(c2ccc(C(=O)NS(=O)(=O)c3ccc(N[C@H](CCN(C)C)CSc4ccccc4)c([N+](=O)[O-])c3)cc2)CC(C)N1Cc1ccccc1C(F)(F)F` (stereo partly specified), the Ki on Bcl-2-like protein 1 [1] is 96 nM; in test [2], over 10000 nM; at Bcl-2-like protein 2, 170 nM; on Bcl-2-like protein 1 [3] it was 68 nM; on Bcl-2-like protein 1 [4], 140 nM.
As for H-PAELEVECATQLRRFGDKLNFRQKLL-OH, the Ki (on Bcl-2-like protein 1 [5]; on Bcl-2-like protein 1 [6]; in test [7]; in [8]; on Bcl-2-like protein 1 [9]; at Bcl-2-like protein 1 [10]) was over 10000 nM each time. For the same compound, the Ki on Bcl-2-like protein 1 [11], on Bcl-2-like protein 1 [12], on Bcl-2-like protein 1 [13], on Bcl-2-like protein 1 [14], at Bcl-2-like protein 1 [15] and at Bcl-2-like protein 1 [16] was over 10000 nM in each case. Also, the Ki on Bcl-2-like protein 1 [17], at Bcl-2-like protein 1 [18], at Bcl-2-like protein 1 [19], on Bcl-2-like protein 1 [20] and at Bcl-2-like protein 1 [21] was over 10000 nM throughout.
With `CN(C)CC[C@H](CSc1ccccc1)Nc1ccc(S(=O)(=O)NC(=O)c2ccc(N3CCN(Cc4ccccc4C(F)(F)F)CC3)cc2)cc1[N+](=O)[O-]`, the Ki at Bcl-2-like protein 1 [1] is 11 nM; in [2], over 10000 nM; on Bcl-2-like protein 2, 49 nM; on Bcl-2-like protein 1 [3] it was 3.5 nM; at Bcl-2-like protein 1 [4] it was 200 nM.

Values taken from ChEMBL document CHEMBL1914418, “Biochemical and pharmacological profiling of the pro-survival protein Bcl-xL” (Bioorg Med Chem Lett, 2011).
